Measured values taken from ChEMBL document CHEMBL1123187, “3-Hydroxy-3-methylglutaryl-coenzyme A reductase inhibitors. 5. 6-(Fluoren-9-yl)- and 6-(fluoren-9-ylidenyl)-3,5-dihydroxyhexanoic acids and their lactone derivatives” (J Med Chem, 1986).

Tests used:
[1] = molecular target: T1, 3-hydroxy-3-methylglutaryl-coenzyme A reductase (Rattus norvegicus) (UniProt P51639); test: compound was tested for its ability to inhibit solubilized, purified rat liver HMG-CoA reductase, relative to compactin(100)
T1 sequence (whole entry): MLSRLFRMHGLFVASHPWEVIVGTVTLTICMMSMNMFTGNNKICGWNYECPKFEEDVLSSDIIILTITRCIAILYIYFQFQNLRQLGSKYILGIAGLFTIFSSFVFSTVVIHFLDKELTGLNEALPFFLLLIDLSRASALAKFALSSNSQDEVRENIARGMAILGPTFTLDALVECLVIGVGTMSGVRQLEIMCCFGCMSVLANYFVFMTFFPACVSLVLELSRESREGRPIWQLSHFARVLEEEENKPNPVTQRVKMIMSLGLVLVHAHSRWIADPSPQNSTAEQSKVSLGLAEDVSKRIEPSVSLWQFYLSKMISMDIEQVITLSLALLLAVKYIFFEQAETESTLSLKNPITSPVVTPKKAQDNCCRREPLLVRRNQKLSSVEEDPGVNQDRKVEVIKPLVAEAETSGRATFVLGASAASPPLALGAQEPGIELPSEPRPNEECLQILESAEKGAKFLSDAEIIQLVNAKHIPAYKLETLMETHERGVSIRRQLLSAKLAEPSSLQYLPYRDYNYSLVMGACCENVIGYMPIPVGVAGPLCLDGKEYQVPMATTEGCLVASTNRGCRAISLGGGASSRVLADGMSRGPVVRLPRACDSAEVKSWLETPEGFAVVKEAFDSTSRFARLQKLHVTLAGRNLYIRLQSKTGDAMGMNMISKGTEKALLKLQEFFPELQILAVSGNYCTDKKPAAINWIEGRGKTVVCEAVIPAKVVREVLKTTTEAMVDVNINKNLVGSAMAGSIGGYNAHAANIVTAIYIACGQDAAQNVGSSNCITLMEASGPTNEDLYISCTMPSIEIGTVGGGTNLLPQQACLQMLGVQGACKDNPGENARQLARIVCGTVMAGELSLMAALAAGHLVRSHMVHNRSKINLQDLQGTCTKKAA

[2] = molecular target: T1, 3-hydroxy-3-methylglutaryl-coenzyme A reductase (Rattus norvegicus); test: Compound was tested for its ability to inhibit solubilized, purified rat liver HMG-CoA reductase, relative to compactin(100)
[3] = molecular target: T2, 3-hydroxy-3-methylglutaryl-coenzyme A reductase (Rattus norvegicus, UniProt P51639); test: Compound was tested in vitro for its ability to inhibit rat liver HMG-CoA reductase
T2 sequence (P51639 whole entry): T1 sequence (whole entry)

Relative potency [1]	Relative potency [2]	IC50 [3] [nM]	Structure (SMILES)
0.63	–	–	O=C1C[C@H](O)C[C@@H](/C=C/c2ccccc2-c2ccccc2)O1
26	–	–	O=C1C[C@H](O)C[C@@H](/C=C/c2c(Cl)cc(Cl)cc2-c2ccccc2)O1
–	1.7	830	Cc1cc(C)c2c(c1)-c1cc(C)cc(C)c1C2=C[C@@H]1C[C@@H](O)CC(=O)O1
80	–	–	Cc1cc(C)cc(-c2cc(C)cc(C)c2/C=C/[C@@H]2C[C@@H](O)CC(=O)O2)c1
–	1.9	750	Cc1cc(C)c2c(c1)-c1ccccc1/C2=C\[C@@H]1C[C@@H](O)CC(=O)O1
–	1.5	–	O=C1C[C@H](O)C[C@@H](C=C2c3ccccc3-c3ccccc32)O1
100	–	–	O=C1C[C@H](O)C[C@@H](/C=C/c2c(Cl)cc(Cl)cc2-c2ccc(F)cc2)O1
–	14	85	O=C1C[C@H](O)CC(CC2c3cc(F)ccc3-c3cc(Cl)cc(Cl)c32)O1 (stereo partly specified)
